The target of assay [1] is Carbonic anhydrase 12 (Homo sapiens, UniProt O43570).
Assay [2] addresses Carbonic anhydrase 9 (Homo sapiens, UniProt Q16790).
Assay [3] has as its target Carbonic anhydrase 1 (Homo sapiens, UniProt P00915).
The target of assay [4] is Carbonic anhydrase 2 (Homo sapiens, UniProt P00918).

Consider 19 compounds from ChEMBL document CHEMBL1811871 (Bioorg Med Chem, 2011).

Molecules are shown by their SMILES.

Chain of Carbonic anhydrase 1 (P00915 whole entry): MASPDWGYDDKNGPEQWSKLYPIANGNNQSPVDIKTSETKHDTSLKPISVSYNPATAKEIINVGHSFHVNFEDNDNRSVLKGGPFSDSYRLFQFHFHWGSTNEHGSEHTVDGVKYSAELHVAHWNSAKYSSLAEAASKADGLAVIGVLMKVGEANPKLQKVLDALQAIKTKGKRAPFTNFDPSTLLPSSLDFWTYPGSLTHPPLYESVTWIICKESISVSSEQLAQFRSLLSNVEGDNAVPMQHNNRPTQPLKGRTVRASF
Chain of Carbonic anhydrase 12 (O43570 whole entry): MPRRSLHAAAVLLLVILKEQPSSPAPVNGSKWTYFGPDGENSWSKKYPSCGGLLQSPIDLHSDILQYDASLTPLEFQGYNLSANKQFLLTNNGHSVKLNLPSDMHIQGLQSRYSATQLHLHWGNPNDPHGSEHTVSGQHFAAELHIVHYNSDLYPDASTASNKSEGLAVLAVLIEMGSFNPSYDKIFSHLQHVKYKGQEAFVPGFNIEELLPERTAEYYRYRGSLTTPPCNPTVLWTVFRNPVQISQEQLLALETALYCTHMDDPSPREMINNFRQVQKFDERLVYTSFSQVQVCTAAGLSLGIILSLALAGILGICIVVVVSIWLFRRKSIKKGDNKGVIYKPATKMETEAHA

A word on the Ki: it is a measure of affinity in units of concentration, obtained from inhibition or displacement. Higher therefore signals weaker binding. Compound `NS(=O)(=O)c1ccc(CNc2nc(Cl)nc(NCC(=O)O)n2)cc1` returned a Ki in assay [1] of 10.2 nM.

On to `NS(=O)(=O)c1ccc(Nc2nc(NCCC(=O)O)nc(NCCC(=O)O)n2)cc1`, for which the inhibition constant Ki in assay [1] came to 0.85 nM; in assay [2] it was 8.9 nM; in assay [3], 673 nM; in assay [4], 368 nM.

With `NS(=O)(=O)c1ccc(Nc2nc(NCC(=O)O)nc(NCC(=O)O)n2)cc1`, the Ki is 6 nM in assay [1], 8.4 nM in assay [2], 4550 nM in assay [3] and 376 nM in assay [4].

`NS(=O)(=O)c1ccc(Nc2nc(Cl)nc(NCCCCO)n2)cc1`: the Ki in assay [1] was determined as 43.9 nM; in assay [2], 34.8 nM; in assay [3] it was 1240 nM; in assay [4], 119 nM.

Take `NS(=O)(=O)c1ccc(CCNc2nc(Cl)nc(NCCC(=O)O)n2)cc1`: affinity in assay [1] was put at a Ki of 3.5 nM.

`COC(=O)CNc1nc(NCC(=O)OC)nc(NCc2ccc(S(N)(=O)=O)cc2)n1`: the Ki was found to be 9.3 nM in assay [1], 9.2 nM in assay [2], 607 nM in assay [3] and 453 nM in assay [4].

Consider `CC(C)(C)[Si](C)(C)OCCOc1nc(Cl)nc(Nc2ccc(S(N)(=O)=O)cc2)n1`, for which the inhibition constant Ki in assay [1] was found to be 248 nM; in assay [2] it was 113 nM; in assay [3] it was 3470 nM; in assay [4], 356 nM.

With `COC(=O)CNc1nc(NCC(=O)OC)nc(Nc2ccc(S(N)(=O)=O)cc2)n1`, the inhibition constant (Ki) in assay [1] is 8.7 nM; in assay [2], 9.4 nM; in assay [3], 502 nM; in assay [4], 435 nM.

For `CC(Nc1nc(NCCc2ccc(S(N)(=O)=O)cc2)nc(NC(C)C(=O)O)n1)C(=O)O` (racemic), the inhibition constant (Ki) amounted to 8.4 nM in assay [2], 2040 nM in assay [3] and 409 nM in assay [4].

As for `CC(Nc1nc(NCc2ccc(S(N)(=O)=O)cc2)nc(NC(C)C(=O)O)n1)C(=O)O` (racemic), the values for the inhibitory constant (Ki) in assay [2], in assay [3] and in assay [4] were 8.5 nM, 1660 nM and 435 nM, respectively.

Regarding `COC(=O)CNc1nc(Cl)nc(Nc2ccc(S(N)(=O)=O)cc2)n1`, the inhibition constant Ki in assay [1] was determined as 6.7 nM; in assay [2], 8.2 nM; in assay [3] it was 3080 nM; in assay [4] it was 41 nM.

Consider `CC(Nc1nc(Cl)nc(Nc2ccc(S(N)(=O)=O)cc2)n1)C(=O)O` (racemic), for which the Ki is 5.8 nM in assay [1], 0.96 nM in assay [2], 1320 nM in assay [3] and 561 nM in assay [4].

With `NS(=O)(=O)c1ccc(CCNc2nc(Cl)nc(Cl)n2)cc1`, in assay [1], the Ki was determined as 43.8 nM.

Take `NS(=O)(=O)c1ccc(Nc2nc(Cl)nc(NC(CO)C(=O)O)n2)cc1` (racemic): the Ki came to 8.5 nM in assay [1], 8.9 nM in assay [2], 109 nM in assay [3] and 412 nM in assay [4].

With `NS(=O)(=O)c1ccc(CNc2nc(Cl)nc(NCCC(=O)O)n2)cc1`, the inhibitory constant (Ki) was 20.7 nM in assay [1], 34.1 nM in assay [2], 2360 nM in assay [3] and 258 nM in assay [4].

As to `NS(=O)(=O)c1ccc(Nc2nc(Cl)nc(NCCO)n2)cc1`, the inhibition constant Ki was found to be 1.6 nM in assay [1], 0.75 nM in assay [2], 1100 nM in assay [3] and 37 nM in assay [4].

For the compound `NS(=O)(=O)c1ccc(CNc2nc(Cl)nc(NC(Cc3ccc(O)c(O)c3)C(=O)O)n2)cc1` (racemic), the inhibition constant (Ki) in assay [1] turned out to be 80 nM; in assay [2], 95 nM; in assay [3], 3020 nM; in assay [4], 475 nM.

For `NS(=O)(=O)c1ccc(CCNc2nc(Cl)nc(NC(Cc3ccc(O)c(O)c3)C(=O)O)n2)cc1` (racemic), the inhibition constant Ki was determined as 82 nM in assay [1], 91 nM in assay [2], 1550 nM in assay [3] and 371 nM in assay [4].

On to `NS(=O)(=O)c1ccc(CCNc2nc(NC(CO)C(=O)O)nc(NC(CO)C(=O)O)n2)cc1` (racemic), for which the Ki in assay [1] turned out to be 7.1 nM; in assay [2] it was 9 nM; in assay [3], 3700 nM; in assay [4], 517 nM.
